Laboratory results: ChEMBL document CHEMBL1909046, “DrugMatrix in vitro pharmacology data”

Experiments:
[1] = target: T1, Cholecystokinin receptor type A (Homo sapiens, UniProt P32238); type: cell membranes, Membrane; details: 1321-n1; also: in other assays of this panel Not Active means under 50% inhibition at 10 µM
T1 sequence (P32238 whole entry): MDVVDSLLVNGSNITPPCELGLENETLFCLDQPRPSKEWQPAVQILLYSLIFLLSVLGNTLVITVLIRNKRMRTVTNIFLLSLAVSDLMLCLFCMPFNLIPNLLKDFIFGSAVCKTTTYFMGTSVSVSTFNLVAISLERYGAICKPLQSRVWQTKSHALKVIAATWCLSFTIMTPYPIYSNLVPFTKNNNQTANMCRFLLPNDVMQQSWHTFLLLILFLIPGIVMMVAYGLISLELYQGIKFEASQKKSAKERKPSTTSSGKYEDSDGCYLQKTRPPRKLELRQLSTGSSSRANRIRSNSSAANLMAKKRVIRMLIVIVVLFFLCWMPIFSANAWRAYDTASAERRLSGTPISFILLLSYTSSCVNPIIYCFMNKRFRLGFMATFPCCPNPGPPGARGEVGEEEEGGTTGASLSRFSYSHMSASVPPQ

[2] = target: T2, Cytochrome P450 1A2 (Homo sapiens, UniProt P05177); details: bti-tn-5b1-4; also: in other assays of this panel Not Active means under 50% inhibition at 10 µM
T2 sequence (P05177 whole entry): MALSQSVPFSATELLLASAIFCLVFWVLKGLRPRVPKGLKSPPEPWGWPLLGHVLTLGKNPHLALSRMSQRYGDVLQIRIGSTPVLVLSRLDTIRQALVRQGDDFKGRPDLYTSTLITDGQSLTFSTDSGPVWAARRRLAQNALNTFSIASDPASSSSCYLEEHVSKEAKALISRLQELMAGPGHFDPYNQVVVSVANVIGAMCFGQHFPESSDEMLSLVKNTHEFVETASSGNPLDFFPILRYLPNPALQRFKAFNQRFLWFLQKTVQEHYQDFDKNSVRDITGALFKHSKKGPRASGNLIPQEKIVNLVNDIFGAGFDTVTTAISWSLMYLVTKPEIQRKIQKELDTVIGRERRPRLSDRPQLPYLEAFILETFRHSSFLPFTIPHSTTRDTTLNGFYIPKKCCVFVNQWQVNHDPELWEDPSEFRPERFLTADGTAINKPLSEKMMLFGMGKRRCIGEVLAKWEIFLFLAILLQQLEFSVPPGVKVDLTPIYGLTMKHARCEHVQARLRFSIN

[3] = target: Insulin receptor (Rattus norvegicus, UniProt P15127); type: cell membranes, Wistar, Liver, Membrane; also: in other assays of this panel Not Active means under 50% inhibition at 10 µM
[4] = DRUGMATRIX: Imidazoline I2, Central radioligand binding (ligand: [3H] Idazoxan); type: cell membranes, Rattus norvegicus, Wistar, Cerebral cortex, Membrane; details: Not Active = under 50% inhibition at 10 µM
[5] = target: Cytochrome P450 2D6 (Homo sapiens, UniProt P10635); details: bti-tn-5b1-4; also: in other assays of this panel Not Active means under 50% inhibition at 10 µM
[6] = DRUGMATRIX: Sodium/nucleoside co-transporter radioligand binding (ligand: nitrobenzylthioinosine); type: cell membranes, Cavia porcellus, Dunkin-Hartley, Cerebral cortex, Membrane; details: Not Active = under 50% inhibition at 10 µM
[7] = target: Beta-2 adrenergic receptor (Homo sapiens, UniProt P07550); assay: DRUGMATRIX: Adrenergic beta2 radioligand binding (ligand: [3H] CGP-12177); type: cell membranes, Membrane; details: cho; Not Active = under 50% inhibition at 10 µM
[8] = target: 5-hydroxytryptamine receptor 4 (Cavia porcellus, UniProt O70528); type: cell membranes, Dunkin-Hartley, Striatum, Membrane; also: in other assays of this panel Not Active means under 50% inhibition at 10 µM
[9] = target: Estrogen receptor beta (Homo sapiens, UniProt Q92731); details: sf9; also: in other assays of this panel Not Active means under 50% inhibition at 10 µM
[10] = DRUGMATRIX: Leukotriene, BLT (LTB4) radioligand binding (ligand: [3H]LTB4); type: cell membranes, Membrane; details: u-937; Not Active = under 50% inhibition at 10 µM
[11] = target: Melanocortin receptor 3 (Homo sapiens, UniProt P41968); type: cell membranes, Membrane; details: hek293; also: in other assays of this panel Not Active means under 50% inhibition at 10 µM
[12] = target: Histamine H2 receptor (Homo sapiens, UniProt P25021); type: cell membranes, CHO-K1, Membrane; details: cho-k1; also: in other assays of this panel Not Active means under 50% inhibition at 10 µM
[13] = target: T3, Muscarinic acetylcholine receptor M4 (Homo sapiens, UniProt P08173); type: cell membranes, CHO-K1, Membrane; details: cho-k1; also: in other assays of this panel Not Active means under 50% inhibition at 10 µM
T3 sequence (P08173 whole entry): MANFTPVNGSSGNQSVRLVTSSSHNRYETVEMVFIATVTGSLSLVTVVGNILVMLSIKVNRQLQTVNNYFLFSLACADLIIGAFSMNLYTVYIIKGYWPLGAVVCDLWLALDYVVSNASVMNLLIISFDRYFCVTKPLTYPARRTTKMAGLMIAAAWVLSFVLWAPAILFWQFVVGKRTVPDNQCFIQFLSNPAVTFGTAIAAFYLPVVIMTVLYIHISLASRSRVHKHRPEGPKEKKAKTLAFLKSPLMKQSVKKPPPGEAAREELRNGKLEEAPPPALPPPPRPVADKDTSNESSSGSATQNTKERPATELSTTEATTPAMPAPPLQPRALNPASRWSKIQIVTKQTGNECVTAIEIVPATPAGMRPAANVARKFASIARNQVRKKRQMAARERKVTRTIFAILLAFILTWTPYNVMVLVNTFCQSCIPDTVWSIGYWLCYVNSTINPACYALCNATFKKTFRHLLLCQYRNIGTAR

[14] = target: T4, C-X-C chemokine receptor type 1 (Homo sapiens, UniProt P25024); also: in other assays of this panel Not Active means under 50% inhibition at 10 µM
T4 sequence (P25024 whole entry): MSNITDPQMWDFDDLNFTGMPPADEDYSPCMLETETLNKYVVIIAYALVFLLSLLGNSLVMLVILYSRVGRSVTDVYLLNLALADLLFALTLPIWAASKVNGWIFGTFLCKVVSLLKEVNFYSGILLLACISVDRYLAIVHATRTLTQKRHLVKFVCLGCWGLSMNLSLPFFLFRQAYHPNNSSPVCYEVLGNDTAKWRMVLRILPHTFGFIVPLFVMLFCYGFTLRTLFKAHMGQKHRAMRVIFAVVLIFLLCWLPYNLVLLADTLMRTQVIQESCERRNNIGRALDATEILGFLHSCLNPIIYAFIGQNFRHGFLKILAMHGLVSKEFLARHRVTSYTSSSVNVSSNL

Chain of Insulin receptor (P15127 27-759 limits assumed): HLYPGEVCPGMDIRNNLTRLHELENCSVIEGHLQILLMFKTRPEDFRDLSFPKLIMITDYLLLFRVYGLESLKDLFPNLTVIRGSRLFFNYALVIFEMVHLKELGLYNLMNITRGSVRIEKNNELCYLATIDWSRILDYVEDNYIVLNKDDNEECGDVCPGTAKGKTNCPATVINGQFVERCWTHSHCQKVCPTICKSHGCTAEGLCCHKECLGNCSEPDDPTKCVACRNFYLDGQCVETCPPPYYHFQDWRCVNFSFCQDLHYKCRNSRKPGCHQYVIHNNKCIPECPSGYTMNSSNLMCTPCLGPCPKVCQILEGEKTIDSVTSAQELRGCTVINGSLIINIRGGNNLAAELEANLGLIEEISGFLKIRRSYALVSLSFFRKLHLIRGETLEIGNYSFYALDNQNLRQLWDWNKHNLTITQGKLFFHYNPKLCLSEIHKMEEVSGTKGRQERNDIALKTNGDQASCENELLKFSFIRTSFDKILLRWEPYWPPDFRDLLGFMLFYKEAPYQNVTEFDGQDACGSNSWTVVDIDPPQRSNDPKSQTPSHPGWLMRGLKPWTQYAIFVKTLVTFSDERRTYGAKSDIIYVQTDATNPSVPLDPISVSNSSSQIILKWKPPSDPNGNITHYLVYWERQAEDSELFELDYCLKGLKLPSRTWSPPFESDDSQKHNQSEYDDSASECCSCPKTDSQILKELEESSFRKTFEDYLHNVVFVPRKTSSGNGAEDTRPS
Chain of Insulin receptor (P15127 764-1383 limits assumed): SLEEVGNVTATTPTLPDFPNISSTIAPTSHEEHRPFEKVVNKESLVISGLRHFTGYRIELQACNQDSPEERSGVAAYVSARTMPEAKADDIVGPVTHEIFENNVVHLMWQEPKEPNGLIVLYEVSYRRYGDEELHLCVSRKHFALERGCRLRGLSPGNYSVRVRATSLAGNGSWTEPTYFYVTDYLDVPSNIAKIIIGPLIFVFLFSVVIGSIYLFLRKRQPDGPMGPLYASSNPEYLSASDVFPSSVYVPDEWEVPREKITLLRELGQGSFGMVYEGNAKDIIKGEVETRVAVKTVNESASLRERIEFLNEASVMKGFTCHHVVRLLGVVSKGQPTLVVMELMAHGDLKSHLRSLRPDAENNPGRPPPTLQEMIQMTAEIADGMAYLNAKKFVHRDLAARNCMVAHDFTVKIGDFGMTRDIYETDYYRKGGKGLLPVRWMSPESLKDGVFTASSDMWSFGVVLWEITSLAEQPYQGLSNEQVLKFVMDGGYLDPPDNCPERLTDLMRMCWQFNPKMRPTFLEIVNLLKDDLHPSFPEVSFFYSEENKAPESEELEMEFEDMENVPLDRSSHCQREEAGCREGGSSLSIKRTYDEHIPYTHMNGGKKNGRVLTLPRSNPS
Chain of Cytochrome P450 2D6 (P10635 whole entry): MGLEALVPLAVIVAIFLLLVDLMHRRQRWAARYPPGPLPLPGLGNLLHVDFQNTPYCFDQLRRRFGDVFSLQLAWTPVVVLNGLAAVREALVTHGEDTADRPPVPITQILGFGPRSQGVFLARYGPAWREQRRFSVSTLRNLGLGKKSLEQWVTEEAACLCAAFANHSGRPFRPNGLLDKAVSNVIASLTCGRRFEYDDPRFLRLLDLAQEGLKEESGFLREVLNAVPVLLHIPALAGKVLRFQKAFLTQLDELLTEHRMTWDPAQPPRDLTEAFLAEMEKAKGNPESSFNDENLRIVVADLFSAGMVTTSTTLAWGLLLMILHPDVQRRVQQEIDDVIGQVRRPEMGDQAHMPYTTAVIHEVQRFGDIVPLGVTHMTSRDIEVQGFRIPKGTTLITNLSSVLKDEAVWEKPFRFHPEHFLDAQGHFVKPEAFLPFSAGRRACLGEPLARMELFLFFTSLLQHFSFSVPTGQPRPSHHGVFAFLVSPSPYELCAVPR
Chain of Beta-2 adrenergic receptor (P07550 whole entry): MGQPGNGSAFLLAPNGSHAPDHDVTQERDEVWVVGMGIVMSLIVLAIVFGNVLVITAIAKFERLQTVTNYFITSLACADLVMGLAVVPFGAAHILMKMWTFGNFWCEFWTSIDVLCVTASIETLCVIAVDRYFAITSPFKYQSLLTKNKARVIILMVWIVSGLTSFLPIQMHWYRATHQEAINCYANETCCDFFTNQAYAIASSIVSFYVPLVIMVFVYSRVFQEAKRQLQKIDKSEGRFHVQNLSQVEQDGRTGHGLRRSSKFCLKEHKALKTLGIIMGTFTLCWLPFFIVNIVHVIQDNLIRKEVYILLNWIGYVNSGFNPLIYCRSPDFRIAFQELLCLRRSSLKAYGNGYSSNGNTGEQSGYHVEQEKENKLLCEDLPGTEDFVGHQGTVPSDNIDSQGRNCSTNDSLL
Chain of Estrogen receptor beta (Q92731 whole entry): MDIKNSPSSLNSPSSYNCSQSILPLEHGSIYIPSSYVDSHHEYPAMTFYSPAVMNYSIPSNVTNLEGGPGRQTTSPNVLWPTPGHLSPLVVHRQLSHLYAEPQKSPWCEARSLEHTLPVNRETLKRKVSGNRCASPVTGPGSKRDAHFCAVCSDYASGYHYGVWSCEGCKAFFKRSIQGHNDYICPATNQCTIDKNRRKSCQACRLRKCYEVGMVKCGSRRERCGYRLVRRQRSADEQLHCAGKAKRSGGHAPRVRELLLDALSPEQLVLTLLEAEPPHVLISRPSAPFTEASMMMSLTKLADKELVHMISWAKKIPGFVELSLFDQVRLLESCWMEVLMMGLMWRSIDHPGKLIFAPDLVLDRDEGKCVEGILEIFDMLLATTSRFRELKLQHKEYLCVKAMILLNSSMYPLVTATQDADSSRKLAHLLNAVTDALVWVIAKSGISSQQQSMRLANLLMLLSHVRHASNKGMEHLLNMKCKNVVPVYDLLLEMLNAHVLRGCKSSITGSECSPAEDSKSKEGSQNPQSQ
Chain of Histamine H2 receptor (P25021 whole entry): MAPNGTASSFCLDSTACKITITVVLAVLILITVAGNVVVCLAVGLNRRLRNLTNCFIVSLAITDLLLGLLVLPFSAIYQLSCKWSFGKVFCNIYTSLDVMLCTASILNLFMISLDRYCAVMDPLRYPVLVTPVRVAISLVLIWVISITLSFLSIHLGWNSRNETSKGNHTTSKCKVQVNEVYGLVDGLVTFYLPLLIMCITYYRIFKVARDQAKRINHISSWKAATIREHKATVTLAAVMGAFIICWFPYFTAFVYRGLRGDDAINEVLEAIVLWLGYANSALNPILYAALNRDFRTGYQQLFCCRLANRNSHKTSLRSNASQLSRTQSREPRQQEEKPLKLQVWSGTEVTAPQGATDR
Chain of Melanocortin receptor 3 (P41968 whole entry): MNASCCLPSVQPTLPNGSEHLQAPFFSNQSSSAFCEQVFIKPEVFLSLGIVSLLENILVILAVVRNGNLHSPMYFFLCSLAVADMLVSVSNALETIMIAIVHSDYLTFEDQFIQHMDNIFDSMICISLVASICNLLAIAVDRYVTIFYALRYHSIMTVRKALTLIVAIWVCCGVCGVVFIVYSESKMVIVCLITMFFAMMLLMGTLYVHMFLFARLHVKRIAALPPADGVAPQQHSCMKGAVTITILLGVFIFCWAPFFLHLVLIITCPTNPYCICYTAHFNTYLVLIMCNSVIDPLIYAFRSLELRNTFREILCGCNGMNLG
Chain of 5-hydroxytryptamine receptor 4 (O70528 whole entry): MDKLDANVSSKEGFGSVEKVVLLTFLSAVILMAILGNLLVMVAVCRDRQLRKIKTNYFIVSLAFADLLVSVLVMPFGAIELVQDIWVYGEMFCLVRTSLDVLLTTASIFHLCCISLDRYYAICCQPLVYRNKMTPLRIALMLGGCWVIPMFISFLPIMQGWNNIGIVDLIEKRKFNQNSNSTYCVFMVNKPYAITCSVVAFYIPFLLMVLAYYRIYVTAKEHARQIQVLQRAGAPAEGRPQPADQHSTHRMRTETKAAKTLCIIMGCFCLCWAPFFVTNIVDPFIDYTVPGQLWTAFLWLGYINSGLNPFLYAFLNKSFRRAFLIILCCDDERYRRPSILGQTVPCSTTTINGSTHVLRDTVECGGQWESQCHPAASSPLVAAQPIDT

CC(=O)OCC(=O)[C@@]1(OC(C)=O)[C@@H](C)C[C@H]2[C@@H]3C[C@H](F)C4=CC(=O)C=C[C@]4(C)[C@@]3(F)[C@@H](O)C[C@@]21C [DIFLORASONE DIACETATE]
Not Active: IC50 [1] | IC50 [2] | Ki [2] | IC50 [3] | IC50 [4] | Ki [4] | IC50 [5] | Ki [5] | IC50 [6] | Ki [6] | IC50 [7] | IC50 [8] | IC50 [9] | IC50 [10] | Ki [10] | IC50 [11] | IC50 [12] | IC50 [13] | IC50 [14]

C=C1[C@@H]2CCC3[C@@](CC[C@@H]4[C@H](C(=O)O)C[C@@H](O[C@@H]5O[C@H](CO)[C@@H](OS(=O)(=O)[O-])[C@H](OS(=O)(=O)[O-])[C@H]5OC(=O)CC(C)C)C[C@@]34C)(C2)[C@@H]1O.[K+].[K+] (some centres not stated) [ATRACTYLOSIDE]
Not Active: IC50 [1] | IC50 [2] | Ki [2] | IC50 [3] | IC50 [4] | Ki [4] | IC50 [5] | Ki [5] | IC50 [6] | Ki [6] | IC50 [7] | IC50 [8] | IC50 [9] | IC50 [10] | Ki [10] | IC50 [11] | IC50 [12] | IC50 [13] | IC50 [14]

O=C1OC2(c3ccc(O)cc3Oc3cc(O)ccc32)c2ccccc21 [FLUORESCEIN]
Not Active: IC50 [1] | IC50 [2] | Ki [2] | IC50 [3] | IC50 [4] | Ki [4] | IC50 [5] | Ki [5] | IC50 [6] | Ki [6] | IC50 [7] | IC50 [8] | IC50 [9] | IC50 [10] | Ki [10] | IC50 [11] | IC50 [12] | IC50 [13] | IC50 [14]

Cc1c(-c2ccccc2)oc2c(C(=O)OCCN3CCCCC3)cccc2c1=O [FLAVOXATE]
Not Active: IC50 [1] | IC50 [2] | Ki [2] | IC50 [3] | IC50 [4] | Ki [4] | IC50 [5] | Ki [5] | IC50 [6] | Ki [6] | IC50 [7] | IC50 [8] | IC50 [9] | IC50 [10] | Ki [10] | IC50 [11] | IC50 [12] | IC50 [13] | IC50 [14]

C=C1CC[C@H](O)C/C1=C/C=C1\CCC[C@]2(C)[C@@H]([C@H](C)/C=C/[C@H](C)C(C)C)CC[C@@H]12 [ERGOCALCIFEROL]
Not Active: IC50 [1] | IC50 [2] | Ki [2] | IC50 [3] | IC50 [4] | Ki [4] | IC50 [5] | Ki [5] | IC50 [6] | Ki [6] | IC50 [7] | IC50 [8] | IC50 [9] | IC50 [10] | Ki [10] | IC50 [11] | IC50 [12] | IC50 [13] | IC50 [14]

COc1c(N2CCNC(C)C2)c(F)cc2c(=O)c(C(=O)O)cn(C3CC3)c12 (configuration not stated) [GATIFLOXACIN]
Not Active: IC50 [1] | IC50 [2] | Ki [2] | IC50 [3] | IC50 [4] | Ki [4] | IC50 [5] | Ki [5] | IC50 [6] | Ki [6] | IC50 [7] | IC50 [8] | IC50 [9] | IC50 [10] | Ki [10] | IC50 [11] | IC50 [12] | IC50 [13] | IC50 [14]

COC(=O)[C@H](c1ccccc1Cl)N1CCc2sccc2C1 [CLOPIDOGREL]
Not Active: IC50 [1] | IC50 [2] | Ki [2] | IC50 [3] | IC50 [4] | Ki [4] | IC50 [5] | Ki [5] | IC50 [6] | Ki [6] | IC50 [7] | IC50 [8] | IC50 [9] | IC50 [10] | Ki [10] | IC50 [11] | IC50 [12] | IC50 [13] | IC50 [14]

CN(C)CCCC1(c2ccc(F)cc2)OCc2cc(C#N)ccc21 (configuration not stated) [CITALOPRAM]
Not Active: IC50 [1] | IC50 [2] | Ki [2] | IC50 [3] | IC50 [4] | Ki [4] | IC50 [5] | Ki [5] | IC50 [6] | Ki [6] | IC50 [7] | IC50 [8] | IC50 [9] | IC50 [10] | Ki [10] | IC50 [11] | IC50 [12] | IC50 [13] | IC50 [14]
